# Experimental data: patent US20240294885A1, “ENGINEERED ENZYMES AND METHODS OF MAKING AND USING” (priority 2021, published 2024)
# Tests used:
# Format in all cases: biochemical
# [1] = target: Mycobacterium avium CAR (SEQ ID NO:153) Variant 1 of Table 14 (K275D N276S F278S A283C I300G N335D), Variant 36 A282P M296A M389S N401T F425L (Mycobacterium avium, UniProt A0ACD7BNV2, A282P/A283C/F278S/F425L/G391S/I300G/K275D/M296A/M389S/N276S/N335D/N401T); experiment: CAR lysate assay with 30 mM 6ACA ± 0.25M HMD (Table 14), Variant 36; conditions: Variant 36, Table 14, 6ACA
# [2] = target: Mycobacterium avium CAR (SEQ ID NO:153) Variant 1 of Table 14 (K275D N276S F278S A283C I300G N335D), Variant 37 A282P M296A M389S N401T F425N (Mycobacterium avium, UniProt A0ACD7BNV2, A282P/A283C/F278S/F425N/G391S/I300G/K275D/M296A/M389S/N276S/N335D/N401T); experiment: CAR lysate assay with 30 mM 6ACA ± 0.25M HMD (Table 14), Variant 37; conditions: Variant 37, Table 14, 6ACA
# [3] = target: Mycobacterium avium CAR (SEQ ID NO:153) Variant 1 of Table 14 (K275D N276S F278S A283C I300G N335D), Variant 4 S274P (Mycobacterium avium, UniProt A0ACD7BNV2, A283C/F278S/G391S/I300G/K275D/N276S/N335D/S274P); experiment: CAR lysate assay with 30 mM 6ACA ± 0.25M HMD (Table 14), Variant 4; conditions: Variant 4, Table 14, 6ACA
# [4] = target: Mycobacterium avium CAR (SEQ ID NO:153) Variant 1 of Table 14 (K275D N276S F278S A283C I300G N335D), Variant 33 A282P M296A F425L (Mycobacterium avium, UniProt A0ACD7BNV2, A282P/A283C/F278S/F425L/G391S/I300G/K275D/M296A/N276S/N335D); experiment: CAR lysate assay with 30 mM 6ACA ± 0.25M HMD (Table 14), Variant 33; conditions: Variant 33, Table 14, 6ACA
# [5] = target: Mycobacterium avium CAR (SEQ ID NO:153) Variant 1 of Table 14 (K275D N276S F278S A283C I300G N335D), Variant 12 M296H (Mycobacterium avium, UniProt A0ACD7BNV2, A283C/F278S/G391S/I300G/K275D/M296H/N276S/N335D); experiment: CAR lysate assay with 30 mM 6ACA ± 0.25M HMD (Table 14), Variant 12; conditions: Variant 12, Table 14, 6ACA
# [6] = target: T1, Mycobacterium avium CAR (SEQ ID NO:153) Variant 1 of Table 14, K275D N276S F278S A283C I300G N335D (Mycobacterium avium, UniProt A0ACD7BNV2, A283C/F278S/G391S/I300G/K275D/N276S/N335D); experiment: CAR lysate assay with 10 mM 6ACA ± 125 mM HMD or 0.25M HMD (Table 15), CAR Variant 1
# [7] = target: Mycobacterium avium CAR (SEQ ID NO:153) Variant 1 of Table 14 (K275D N276S F278S A283C I300G N335D), Variant 38 A282P M296A N401T F425L (Mycobacterium avium, UniProt A0ACD7BNV2, A282P/A283C/F278S/F425L/G391S/I300G/K275D/M296A/N276S/N335D/N401T); experiment: CAR lysate assay with 30 mM 6ACA ± 0.25M HMD (Table 14), Variant 38; conditions: Variant 38, Table 14, 6ACA
# [8] = target: Mycobacterium avium CAR (SEQ ID NO:153) Variant 1 of Table 14 (K275D N276S F278S A283C I300G N335D), Variant 34 A282P M296A F425T (Mycobacterium avium, UniProt A0ACD7BNV2, A282P/A283C/F278S/F425T/G391S/I300G/K275D/M296A/N276S/N335D); experiment: CAR lysate assay with 30 mM 6ACA ± 0.25M HMD (Table 14), Variant 34; conditions: Variant 34, Table 14, 6ACA
# [9] = target: Mycobacterium avium CAR (SEQ ID NO:153) Variant 1 of Table 14 (K275D N276S F278S A283C I300G N335D), Variant 35 A282P M296A M389S F425N (Mycobacterium avium, UniProt A0ACD7BNV2, A282P/A283C/F278S/F425N/G391S/I300G/K275D/M296A/M389S/N276S/N335D); experiment: CAR lysate assay with 30 mM 6ACA ± 0.25M HMD (Table 14), Variant 35; conditions: Variant 35, Table 14, 6ACA
# [10] = target: T1, Mycobacterium avium CAR (SEQ ID NO:153) Variant 1 of Table 14, K275D N276S F278S A283C I300G N335D; experiment: CAR lysate assay with 30 mM 6ACA ± 0.25M HMD (Table 14), CAR Variant 1; conditions: CAR Variant 1, Table 14, 6ACA
# [11] = tested on: carboxylic acid reductase (CAR); conditions: 6ACA as substrate, 30 mM or 10 mM; HMD 125 mM or 0.25M
SMILES,Vmax [1],Vmax [2],Vmax [3],Vmax [4],Vmax [5],"Vmax ([6]; CAR Variant 1, Table 15, 6ACA)",Vmax [7],Vmax [8],Vmax [9],Vmax [10],"% inhibition @ 0.25M HMD & 10 mM 6ACA ([6]; CAR Variant 1, 0.25M HMD, 10 mM 6ACA)",inhibition of CAR in the presence of HMD [11]
NCCCCCC(=O)O [6ACA],++ (5.0-10.0),++ (5.0-10.0),+++ (>10.0),+ (<5),+++ (>10.0),+++ (>10.0),++ (5.0-10.0),+ (<5),++ (5.0-10.0),+++ (>10.0),,
"NCCCCCCN [HMD, hexamethylenediamine, reference compound]",,,,,,,,,,,++ (60-90),inhibited
